Patent publication US8143293B2, “Kinase inhibitors useful for the treatment of myleoprolific diseases and other proliferative diseases” (Deciphera Pharmaceuticals, LLC, priority 2007, dated 2012)

Tests used:
[1] = target: T1, Abl kinase (SEQ ID NO: 1) (Homo sapiens, UniProt P00519); experiment: Abl kinase (SEQ ID NO:1) assay, pyruvate kinase/lactate dehydrogenase coupled; conditions: 2 h preincubation, ATP 500 μM; read-out: Biochemical IC50, Abl Enzyme Assay
T1 construct: purchased deCode Genetics
T1 sequence (P00519 with tags, fused parts or gaps): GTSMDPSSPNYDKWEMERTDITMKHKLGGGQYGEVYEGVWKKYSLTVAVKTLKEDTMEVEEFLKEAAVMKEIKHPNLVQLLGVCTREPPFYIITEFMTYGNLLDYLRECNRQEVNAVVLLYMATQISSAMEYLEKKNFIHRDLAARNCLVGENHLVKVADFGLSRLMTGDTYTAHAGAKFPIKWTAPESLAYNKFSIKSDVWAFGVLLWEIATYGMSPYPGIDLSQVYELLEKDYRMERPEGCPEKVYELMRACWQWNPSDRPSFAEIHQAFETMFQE
Protocol: Abl Kinase (SEQ ID NO:1) Assay
Activity of Abl kinase (SEQ ID NO: 1) was determined by following the production of ADP from the kinase reaction through coupling with the pyruvate kinase/lactate dehydrogenase system (e.g., Schindler, et al. Science (2000) 289, 1938-1942). In this assay, the oxidation of NADH (thus the decrease at A340 nm) was continuously monitored spectrophometrically. The reaction mixture (100 μl) contained Abl kinase (1 nM. Abl from deCode Genetics), peptide substrate (EAIYAAPFAKKK, 0.2 mM), MgCl2 (10 mM), pyruvate kinase (4 units), lactate dehydrogenase (0.7 units), phosphoenol pyruvate (1 mM), and NADH (0.28 mM) in 90 mM Tris buffer containing 0.2% octyl-glucoside and 3.5% DMSO, pH 7.5. Test compounds were incubated with Abl (SEQ ID NO:1) and other reaction reagents at 30° C. for 2 h before ATP (500 μM) was added to start the reaction. The absorption at 340 nm was monitored continuously for 2 hours at 30° C. on Polarstar Optima plate reader (BMG). The reaction rate was calculated using the 1.0 to 2.0 h time frame. Percent inhibition was obtained by comparison of reaction rate with that of a control (i.e. with no test compound). IC50 values were calculated from a series of percent inhibition values determined at a range of inhibitor concentrations using software routines as implemented in the GraphPad Prism software package.

[2] = target: T2, c-Kit kinase (SEQ ID NO:9) (Homo sapiens, UniProt P10721); experiment: C-Kit kinase (SEQ ID NO:9) assay, pyruvate kinase/lactate dehydrogenase coupled; conditions: <2 min preincubation, ATP 200 μM; read-out: Biochemical IC50, c-Kit Enzyme Assay
T2 construct: contained c-Kit (cKIT residues T544-V976, from ProQinase, 5.4 nM); purchased ProQinase
Protocol: C-Kit Kinase (SEQ ID NO:9) Assay
Activity of c-Kit kinase (SEQ ID NO:9) was determined by following the production of ADP from the kinase reaction through coupling with the pyruvate kinase/lactate dehydrogenase system (e.g., Schindler, et al. Science (2000) 289, 1938-1942). In this assay, the oxidation of NADH (thus the decrease at A340 nm) was continuously monitored spectrophometrically. The reaction mixture (100 μl) contained c-Kit (cKIT residues T544-V976, from ProQinase, 5.4 nM), polyE4Y (1 mg/ml), MgCl2 (10 mM), pyruvate kinase (4 units), lactate dehydrogenase (0.7 units), phosphoenol pyruvate (1 mM), and NADH (0.28 mM) in 90 mM Tris buffer containing 0.2% octyl-glucoside and 1% DMSO, pH 7.5. Test compounds were incubated with […] (SEQ ID NO:9) and other reaction reagents at 22° C. for <2 min before ATP (200 μM) was added to start the reaction. The absorption at 340 nm was monitored continuously for 0.5 hours at 30° C. on Polarstar Optima plate reader (BMG). The reaction rate was calculated using the 0 to 0.5 h time frame. Percent inhibition was obtained by comparison of reaction rate with that of a control (i.e. with no test compound). IC50 values were calculated from a series of percent inhibition values determined at a range of inhibitor concentrations using software routines as implemented in the GraphPad Prism software package.

[3] = target: T3, C-Met kinase (SEQ ID NO:10) (Homo sapiens, UniProt P08581); experiment: C-Met kinase (SEQ ID NO:10) assay, pyruvate kinase/lactate dehydrogenase coupled; conditions: 0.5 h preincubation, ATP 100 μM; read-out: Biochemical IC50, c-Met Enzyme Assay
T3 construct: 956-1390, from Invitrogen, catalogue #PV3143; His6 (N-terminal leader MSYYHHHHHH... with TEV and thrombin sites) (N); purchased Invitrogen PV3143
Protocol: C-Met Kinase (SEQ ID NO:10) Assay
Activity of C-Met kinase (SEQ ID NO:10) was determined by following the production of ADP from the kinase reaction through coupling with the pyruvate kinase/lactate dehydrogenase system (e.g., Schindler, et al. Science (2000) 289, 1938-1942). In this assay, the oxidation of NADH (thus the decrease at A340 nm) was continuously monitored spectrophometrically. The reaction mixture (100 μl) contained C-Met (c-Met residues; 956-1390, from Invitrogen, catalogue #PV3143, […]), polyE4Y (1 mg/ml), MgCl2 (10 mM), pyruvate kinase (4 units), lactate dehydrogenase (0.7 units), phosphoenol pyruvate (1 mM), and NADH (0.28 mM) in 90 mM Tris buffer containing 0.25 mM DTT, 0.2% octyl-glucoside and 1% DMSO, pH 7.5. Test compounds were incubated with C-Met (SEQ ID NO:10) and other reaction reagents at 22° C. for 0.5 h before ATP (100 μM) was added to start the reaction. The absorption at 340 nm was monitored continuously for 2 hours at 30° C. on Polarstar Optima plate reader (BMG). The reaction rate was calculated using the 1.0 to 2.0 h time frame. Percent inhibition was obtained by comparison of reaction rate with that of a control (i.e. with no test compound). IC50 values were calculated from a series of percent inhibition values determined at a range of inhibitor concentrations using software routines as implemented in the GraphPad Prism software package.

[4] = target: T4, BaF3 cells transfected with wild type p210 BCR-Abl (Homo sapiens, UniProt P00519); experiment: Ba/F3 p210 whole cell proliferation assay; format: cell-based; conditions: 72 hours, Cell Titer Blue; read-out: Whole Cell Antiproliferation IC50, Ba/F3 p210 whole cell proliferation assay
T4 construct: fused on or other part: P11274 (Breakpoint cluster region protein)
Protocol: (§1) BaF3 cells (parental or transfected with the following: wild type p210 BCR-Abl and T315I p210 BCR-Abl was obtained from Professor Richard Van Etten (New England Medical Center, Boston, Mass.). Briefly, cells were grown in RPMI 1640 supplemented with 10% characterized fetal bovine serum (HyClone, Logan, Utah) at 37 degrees Celsius, 5% CO2, 95% humidity. Cells were allowed to expand until reaching 80% saturation at which point they were subcultured or harvested for assay use.
(§2) A serial dilution of test compound was dispensed into a 96 well black clear bottom plate (Corning, Corning, N.Y.). For each cell line, three thousand cells were added per well in complete growth medium. Plates were incubated for 72 hours at 37 degrees Celsius, 5% CO2, 95% humidity. At the end of the incubation period Cell Titer Blue (Promega, Madison, Wis.) was added to each well and an additional 4.5 hour incubation at 37 degrees Celsius, 5% CO2, 95% humidity was performed. Plates were then read on a BMG Fluostar Optima (BMG, Durham, N.C.) using an excitation of 544 nm and an emission of 612 nm. Data was analyzed using Prism software (Graphpad, San Diego, Calif.) to calculate IC50's.

[5] = target: T5, BaF3 cells transfected with T315I p210 BCR-Abl (Homo sapiens, UniProt P00519, T315I, cells depend on it); experiment: Ba/F3 p210 T315I whole cell proliferation assay; format: cell-based; conditions: 72 hours, Cell Titer Blue; read-out: Whole Cell Antiproliferation IC50, Ba/F3 p210 T315I whole cell proliferation assay
T5 construct: fused on or other part: P11274 (Breakpoint cluster region protein)
Protocol: as §1, §2

T2 sequence (P10721 with tags, fused parts or gaps): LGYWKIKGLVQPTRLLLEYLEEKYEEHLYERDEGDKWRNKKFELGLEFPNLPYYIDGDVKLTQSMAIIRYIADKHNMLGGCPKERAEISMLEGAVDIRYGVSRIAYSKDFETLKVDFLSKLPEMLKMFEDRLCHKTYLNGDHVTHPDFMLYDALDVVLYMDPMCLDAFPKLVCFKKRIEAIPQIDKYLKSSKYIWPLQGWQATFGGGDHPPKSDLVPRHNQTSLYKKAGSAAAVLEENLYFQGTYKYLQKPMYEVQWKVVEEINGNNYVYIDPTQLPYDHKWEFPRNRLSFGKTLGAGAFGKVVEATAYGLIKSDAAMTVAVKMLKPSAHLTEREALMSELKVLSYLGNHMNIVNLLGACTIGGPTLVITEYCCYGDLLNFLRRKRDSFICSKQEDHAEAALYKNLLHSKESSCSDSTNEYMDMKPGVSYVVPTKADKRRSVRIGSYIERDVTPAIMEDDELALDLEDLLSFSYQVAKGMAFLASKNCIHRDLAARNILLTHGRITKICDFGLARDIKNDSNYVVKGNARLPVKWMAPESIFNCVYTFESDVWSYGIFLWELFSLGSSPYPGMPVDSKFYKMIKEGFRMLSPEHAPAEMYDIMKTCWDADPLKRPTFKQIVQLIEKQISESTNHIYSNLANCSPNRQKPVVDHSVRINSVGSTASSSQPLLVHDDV
T3 sequence (P08581 with tags, fused parts or gaps): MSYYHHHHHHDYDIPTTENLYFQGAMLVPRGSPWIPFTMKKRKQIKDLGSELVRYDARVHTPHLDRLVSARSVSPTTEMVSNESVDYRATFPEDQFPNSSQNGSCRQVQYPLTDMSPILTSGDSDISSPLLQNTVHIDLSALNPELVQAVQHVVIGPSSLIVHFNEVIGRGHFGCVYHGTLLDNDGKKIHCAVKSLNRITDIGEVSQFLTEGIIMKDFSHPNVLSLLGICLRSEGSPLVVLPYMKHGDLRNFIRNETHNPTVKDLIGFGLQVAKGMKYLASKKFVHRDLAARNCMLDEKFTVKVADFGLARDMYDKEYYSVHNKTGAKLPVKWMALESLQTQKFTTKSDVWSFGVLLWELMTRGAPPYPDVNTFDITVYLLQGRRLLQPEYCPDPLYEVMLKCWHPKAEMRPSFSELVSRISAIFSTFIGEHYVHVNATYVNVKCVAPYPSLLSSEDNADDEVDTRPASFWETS

Structure (SMILES): Cn1cc(-c2cc(Oc3ccc(NC(=O)Nc4noc5ccccc45)c(F)c3)ccn2)cn1 [Example 24, 1-(benzo[d]isoxazol-3-yl)-3-(2-fluoro-4-(2-(1-methyl-1H-pyrazol-4-yl)pyridin-4-yloxy)phenyl)urea]
- IC50 [1]: < 100 nM
- IC50 [2]: < 100 nM
- IC50 [3]: < 10000 nM
- GI50 [4]: < 100 nM
- GI50 [5]: < 100000 nM
